# Experimental data reported in patent publication US8791123B2, “Substituted pyrazolo[1,5-a]pyrimidine compounds as Trk kinase inhibitors” (Array Biopharma, Inc., priority 2009, dated 2014).
# Where two headings read alike, the source gives them in different places.
# Key:
# [1] = biological target: TrkA (histidine-tagged recombinant human TrkA, cytoplasmic domain) (Homo sapiens (Human), UniProt P04629); experiment: TrkA ELISA Assay; format: biochemical; details: Table 1; ELISA, 500 μM ATP; read-out: TrkA Enzyme IC50
# Description: An enzyme-linked immunosorbant assay (ELISA) was used to assess TrkA kinase activity in the presence of inhibitors. Immulon 4HBX 384-well microtiter plates (Thermo part #8755) were coated with a 0.025 mg/mL solution of poly (Glu, Ala, Tyr; 6:3:1; Sigma P3899). […] The reaction mixture was removed from the plate by washing with PBS containing 0.1% (v/v) Tween 20. The phosphorylated reaction product was detected using 0.2 μg/mL of a phosphotyrosine specific monoclonal antibody (clone PY20) conjugated to horseradish peroxidase in conjunction with the TMB Peroxidase Substrate System (KPL). After the addition of 1M phosphoric acid, the chromogenic substrate color intensity was quantitated via absorbance at 450 nm.
# Human Jak2 kinase domain = Human Jak2 kinase domain (Homo sapiens (Human), UniProt O60674); experiment: Jak2 Inhibition Assay (Omnia kinase assay); format: biochemical; details: for IC50: read-out: Jak2 Enzyme IC50; for Jak2 Enzyme (% inhibition at 1000 nM): 1000 nM test compound
# Description: The assays described in Examples C, D, E and F for the determination of JAK1, JAK2, JAK3 and Tyk2 kinase activity, respectively, utilized the Omnia® Kinase fluorescence peptide substrate-based technology (Invitrogen). […] The reactions were therefore read at excitation 360 nm and emission was measured at 485 nm every 50 seconds for 45 minutes using a PerkinElmer EnVision Multilabel Plate Reader.
# The final buffer conditions for each of the JAK1, JAK2, JAK3 and Tyk2 assays were as follows: 25 mM HEPES, pH 7.4, 10 mM MgCl2, 0.01% Triton X-100 and 1 mM DTT.
# Two-μL aliquots of these were transferred to a fresh plate for a ten-fold intermediate dilution with assay buffer. Five-μL aliquots of the diluted compounds were then transferred to 20-μL of assay mixtures described in Examples C, D, E and F for a final concentration of DMSO of 2%. […] For each plate, percent of control (POC) values were calculated for each well according to the following equation:
# [formula] • where • Xmax=Average Uninhibited Controls • Xmin=Average Background IC50's were estimated from the POC's using a standard 4-parameter logistic model:
# [formula] • where • A=Minimum Y (Bottom Asymptote) • B=Maximum Y (Top Asymptote) • C=EC50 • D=Slope Factor • X=Compound Concentration (nM) • Y=POC
# The IC50 is defined as the concentration of inhibitor at which the POC equals 50 for the fitted curve.
# Compounds of Formula I were screened for their ability to inhibit Jak2 using the general enzyme inhibition assay method, in which the assay mixture contained 500 μM ATP, 10 μM Omnia® Y7 peptide (Catalog # IVGN KNZ3071C, Invitrogen Corporation, Carlsbad, Calif.) and 4 nM Jak2 in a total volume of 20 μL. Human Jak2 kinase domain comprising amino acids 808-1132 was purchased from Invitrogen Corporation, Carlsbad, Calif. (catalog # IVGN PV4210).
# [2] = Table 1, 500 μM ATP, >1000 nM when >50% inhibition not observed at 1000 nM
# Sequence of TrkA (histidine-tagged recombinant human TrkA, cytoplasmic domain) (P04629 440-796): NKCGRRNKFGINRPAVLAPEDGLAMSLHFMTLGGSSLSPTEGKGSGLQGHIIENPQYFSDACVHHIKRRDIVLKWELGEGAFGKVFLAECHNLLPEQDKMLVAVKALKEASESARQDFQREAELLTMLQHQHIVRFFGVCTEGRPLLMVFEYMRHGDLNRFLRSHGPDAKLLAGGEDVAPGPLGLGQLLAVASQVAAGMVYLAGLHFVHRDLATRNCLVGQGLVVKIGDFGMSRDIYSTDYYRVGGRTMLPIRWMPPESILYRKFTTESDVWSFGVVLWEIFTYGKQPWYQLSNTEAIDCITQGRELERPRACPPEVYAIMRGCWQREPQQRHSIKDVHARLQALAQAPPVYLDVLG
# Sequence of Human Jak2 kinase domain (O60674 808-1132): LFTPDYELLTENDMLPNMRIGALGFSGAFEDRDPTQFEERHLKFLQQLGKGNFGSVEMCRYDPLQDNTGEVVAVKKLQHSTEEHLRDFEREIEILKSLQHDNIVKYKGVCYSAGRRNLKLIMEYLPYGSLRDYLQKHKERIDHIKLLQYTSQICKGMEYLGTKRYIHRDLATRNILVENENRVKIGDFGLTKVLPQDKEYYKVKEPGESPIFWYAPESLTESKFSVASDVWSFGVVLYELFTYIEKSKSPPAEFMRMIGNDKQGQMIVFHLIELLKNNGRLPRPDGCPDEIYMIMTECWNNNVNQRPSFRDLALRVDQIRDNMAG
IC50 [1],IC50 (Human Jak2 kinase domain; [2]),IC50 (Human Jak2 kinase domain),Jak2 Enzyme (% inhibition at 1000 nM) (Human Jak2 kinase domain; Table 1),SMILES
0.0022 µM,> 1 µM,–,–,"C[C@@H](O)CNC(=O)c1cnn2ccc(N3CCCC3c3cc(F)ccc3F)nc12 (stereo in doubt) [Example 167, 5-((R)-2-(2,5-difluorophenyl)pyrrolidin-1-yl)-N-(2-hydroxypropyl)pyrazolo[1,5-a]pyrimidine-3-carboxamide]"
0.0007 µM,> 1 µM,–,–,"CC(C)(C)NC(=O)c1cnn2ccc(N3CCC[C@@H]3c3cc(F)ccc3F)nc12 [Example 1, (R)—N-tert-butyl-5-(2-(2,5-difluorophenyl)pyrrolidin-1-yl)pyrazolo[1,5-a]pyrimidine-3-carboxamide]"
0.0007 µM,> 1 µM,–,–,"O=C(Nc1ccccn1)c1cnn2ccc(N3CCC[C@@H]3c3cc(F)ccc3F)nc12 [Example 2, (R)-5-(2-(2,5-difluorophenyl)pyrrolidin-1-yl)-N-(pyridin-2-yl)pyrazolo[1,5-a]pyrimidine-3-carboxamide]"
0.0023 µM,> 1 µM,–,–,"Cc1cccnc1NC(=O)c1cnn2ccc(N3CCC[C@@H]3c3cc(F)ccc3F)nc12 [Example 3, (R)-5-(2-(2,5-difluorophenyl)pyrrolidin-1-yl)-N-(3-methylpyridin-2-yl)pyrazolo[1,5-a]pyrimidine-3-carboxamide]"
0.00095 µM,> 1 µM,–,–,"O=C(NCCN1CCOCC1)c1cnn2ccc(N3CCC[C@@H]3c3cc(F)ccc3F)nc12 [Example 4, (R)-5-(2-(2,5-difluorophenyl)pyrrolidin-1-yl)-N-(2-morpholinoethyl)pyrazolo[1,5-a]pyrimidine-3-carboxamide]"
0.00095 µM,> 1 µM,–,–,"Cc1ccc(CNC(=O)c2cnn3ccc(N4CCC[C@@H]4c4cc(F)ccc4F)nc23)o1 [Example 5, (R)-5-(2-(2,5-difluorophenyl)pyrrolidin-1-yl)-N-((5-methylfuran-2-yl)methyl)pyrazolo[1,5-a]pyrimidine-3-carboxamide]"
0.00155 µM,> 1 µM,–,–,"Cn1ccc(NC(=O)c2cnn3ccc(N4CCC[C@@H]4c4cc(F)ccc4F)nc23)n1 [Example 6, (R)-5-(2-(2,5-difluorophenyl)pyrrolidin-1-yl)-N-(1-methyl-1H-pyrazol-3-yl)pyrazolo[1,5-a]pyrimidine-3-carboxamide]"
0.00045 µM,0.107 µM,–,–,"O=C(N[C@H]1CC[C@H](O)CC1)c1cnn2ccc(N3CCC[C@@H]3c3cc(F)ccc3F)nc12 [Example 7, 5-((R)-2-(2,5-difluorophenyl)pyrrolidin-1-yl)-N-((trans)-4-hydroxycyclohexyl)pyrazolo[1,5-a]pyrimidine-3-carboxamide]"
0.0011 µM,> 1 µM,–,–,"CC(C)(CO)NC(=O)c1cnn2ccc(N3CCC[C@@H]3c3cc(F)ccc3F)nc12 [Example 8, (R)-5-(2-(2,5-difluorophenyl)pyrrolidin-1-yl)-N-(1-hydroxy-2-methylpropan-2-yl)pyrazolo[1,5-a]pyrimidine-3-carboxamide]"
0.00345 µM,> 1 µM,–,–,"CC(C)(CN1CCOCC1)NC(=O)c1cnn2ccc(N3CCC[C@@H]3c3cc(F)ccc3F)nc12 [Example 9, (R)-5-(2-(2,5-difluorophenyl)pyrrolidin-1-yl)-N-(2-methyl-1-morpholinopropan-2-yl)pyrazolo[1,5-a]pyrimidine-3-carboxamide]"
0.00105 µM,> 1 µM,–,–,"CNC(=O)c1cnn2ccc(N3CCC[C@@H]3c3cc(F)ccc3F)nc12 [Example 10, (R)-5-(2-(2,5-difluorophenyl)pyrrolidin-1-yl)-N-methylpyrazolo[1,5-a]pyrimidine-3-carboxamide]"
0.238 µM,–,> 1 µM,–,"O=C(O)CC1CCN(C(=O)c2cnn3ccc(N4CCC[C@@H]4c4cc(F)ccc4F)nc23)CC1 [Example 12, (R)-2-(1-(5-(2-(2,5-difluorophenyl)pyrrolidin-1-yl)pyrazolo[1,5-a]pyrimidine-3-carbonyl)piperidin-4-yl)acetic acid]"
0.0005 µM,> 1 µM,–,–,"O=C(NC1CC1)c1cnn2ccc(N3CCC[C@@H]3c3cc(F)ccc3F)nc12 [Example 13, (R)—N-cyclopropyl-5-(2-(2,5-difluorophenyl)pyrrolidin-1-yl)pyrazolo[1,5-a]pyrimidine-3-carboxamide]"
0.00055 µM,0.47 µM,–,–,"O=C(NC1CCC1)c1cnn2ccc(N3CCC[C@@H]3c3cc(F)ccc3F)nc12 [Example 14, (R)—N-cyclobutyl-5-(2-(2,5-difluorophenyl)pyrrolidin-1-yl)pyrazolo[1,5-a]pyrimidine-3-carboxamide]"
0.0009 µM,> 1 µM,–,–,"O=C(NC1(CO)CC1)c1cnn2ccc(N3CCC[C@@H]3c3cc(F)ccc3F)nc12 [Example 16, (R)-5-(2-(2,5-difluorophenyl)pyrrolidin-1-yl)-N-(1-(hydroxymethyl)cyclopropyl)pyrazolo[1,5-a]pyrimidine-3-carboxamide]"
0.00215 µM,> 1 µM,–,–,"CC(C)(O)CNC(=O)c1cnn2ccc(N3CCC[C@@H]3c3cc(F)ccc3F)nc12 [Example 17, (R)-5-(2-(2,5-difluorophenyl)pyrrolidin-1-yl)-N-(2-hydroxy-2-methylpropyl)pyrazolo[1,5-a]pyrimidine-3-carboxamide]"
0.0383 µM,> 1 µM,–,–,"O=C(c1cnn2ccc(N3CCC[C@@H]3c3cc(F)ccc3F)nc12)N1CC[C@H](O)C1 [Example 18, (5-((R)-2-(2,5-difluorophenyl)pyrrolidin-1-yl)pyrazolo[1,5-a]pyrimidin-3-yl)((S)-3-hydroxypyrrolidin-1-yl)methanone]"
0.0742 µM,> 1 µM,–,–,"O=C(c1cnn2ccc(N3CCC[C@@H]3c3cc(F)ccc3F)nc12)N1CC[C@@H](O)C1 [Example 19, (5-((R)-2-(2,5-difluorophenyl)pyrrolidin-1-yl)pyrazolo[1,5-a]pyrimidin-3-yl)((R)-3-hydroxypyrrolidin-1-yl)methanone]"
–,–,–,(13.8) %,"O=C(N[C@H]1CC[C@@H](O)CC1)c1cnn2ccc(N3CCC[C@@H]3c3cncc(F)c3)nc12 [Example 100, 5-((R)-2-(5-fluoropyridin-3-yl)pyrrolidin-1-yl)-N-((cis)-4-hydroxycyclohexyl)pyrazolo[1,5-a]pyrimidine-3-carboxamide]"
–,> 1 µM,–,–,"O=C(NCCN1CCC(O)CC1)c1cnn2ccc(N3CCC[C@@H]3c3cc(F)ccc3F)nc12 [Example 170, 5-((R)-2-(2,5-difluorophenyl)pyrrolidin-1-yl)-N-(2-(4-hydroxypiperidin-1-yl)ethyl)pyrazolo[1,5-a]pyrimidine-3-carboxamide]"
–,–,–,(16.2) %,"Cc1ncc(F)cc1[C@H]1CCCN1c1ccn2ncc(C(=O)N[C@H]3CC[C@@H](O)CC3)c2n1 [Example 195, 5-((R)-2-(5-fluoro-2-methylpyridin-3-yl)pyrrolidin-1-yl)-N-((cis)-4-hydroxycyclohexyl)pyrazolo[1,5-a]pyrimidine-3-carboxamide]"
0.0113 µM,–,–,–,"COc1ncc(F)cc1[C@H]1CCCN1c1ccn2ncc(C(=O)Nc3cc(C)n[nH]3)c2n1 [Example 240, (R)-5-(2-(5-fluoro-2-methoxypyridin-3-yl)pyrrolidin-1-yl)-N-(3-methyl-1H-pyrazol-5-yl)pyrazolo[1,5-a]pyrimidine-3-carboxamide]"
0.0218 µM,–,–,–,"COc1ncc(F)cc1[C@H]1CCCN1c1ccn2ncc(C(=O)Nc3ccn(C)n3)c2n1 [Example 241, (R)-5-(2-(5-fluoro-2-methoxypyridin-3-yl)pyrrolidin-1-yl)-N-(1-methyl-1H-pyrazol-3-yl)pyrazolo[1,5-a]pyrimidine-3-carboxamide]"
0.0089 µM,–,–,–,"COc1ncc(F)cc1[C@H]1CCCN1c1ccn2ncc(C(=O)Nc3cc(C4CC4)n[nH]3)c2n1 [Example 242, (R)-N-(3-cyclopropyl-1H-pyrazol-5-yl)-5-(2-(5-fluoro-2-methoxypyridin-3-yl)pyrrolidin-1-yl)pyrazolo[1,5-a]pyrimidine-3-carboxamide]"
0.0382 µM,–,–,–,"COc1ncc(F)cc1[C@H]1CCCN1c1ccn2ncc(C(=O)Nc3ccn(C(C)C)n3)c2n1 [Example 244, (R)-5-(2-(5-fluoro-2-methoxypyridin-3-yl)pyrrolidin-1-yl)-N-(1-isopropyl-1H-pyrazol-3-yl)pyrazolo[1,5-a]pyrimidine-3-carboxamide]"
